The text below walks through data of US20250388602A1 (Genase Therapeutics B.V., priority 2022, published 2025).

Each structure is given as a SMILES string.

Data set [1] has as its target CYP2C9 (Homo sapiens (Human), UniProt P11712). Put plainly: biochemical. It counts as in vitro ADME. As for the experimental part:
(§1) CYP inhibition: Co-incubation of compounds with P450 enzyme-selective substrates was performed using pooled human liver microsomes (Cat. No. H0610, Xenotech), to determine their potential to cause drug-drug interactions. The assay was performed in duplicate. The formation of acetaminophen, 7′-hydoxycoumarin, hydrobupropion, N-desethylamodiaquine, 4′-hydroxydiclofenac, 4′-hydroxymephenytoin, 1′-hydroxybufuralol, 6″-hydroxychlorzoxazone were quantified as markers for CYP1A2, CYP2A6, […], CYP2C8, CYP2C9, CYP2C19, […], CYP2E1, respectively. CYP3A4 inhibition was measured using 2 substrates, measuring the formation of […] (3A4-T), and 1′-hydroxymidazolam (3A4-M). The incubation was carried out in 96 deep well plates each well containing: 179 μL of the master solution (0.2 mg/mL microsomes plus CYP substrate (see below for final substrate concentration and incubation time for the different CYP assays)) in 100 mM phosphate buffer and 1 μL of the compound working solution or vehicle. The final concentrations of the compounds in the assay was 30 μM when using a single dose or 0.1, 0.3, 1, 3, 10 and 30 μM for a dose response.
(§2) The incubation plate was placed into a water bath and pre-warmed at 37° C. for 5 minutes before the reactions were started by the addition of 20 μL of 10 mM NADPH solution and incubated at 37° C. for the time listed above. The reaction was stopped by addition of 1.5 volumes (300 μL) of cold ACN containing 3% formic acid and 200 nM tolbutamide, 200 nM aprozolam and 200 nM labalol. The plate was centrifuged at 3,220 g for 50 minutes and then 200 μL of the supernatant was transferred to the analysis plate for LC/MS/MS analysis. The respective metabolite formation from each probe substrate was compared with that observed for the solvent control incubations.

The target of data set [2] is CYP2A6 (Homo sapiens (Human), UniProt P11509). The experiment in a line: biochemical. In kind it is in vitro ADME. How it is done:
as §1, §2

For data set [3], the target named is CYP2C19 (Homo sapiens (Human), UniProt P33261). Put plainly: biochemical. It counts as in vitro ADME. As for the experimental part:
as §1, §2

The target in data set [4] is CYP3A4 (Homo sapiens (Human), UniProt P08684). The experiment in a line: biochemical. It counts as in vitro ADME. How it is done:
as §1, §2

In data set [5] the target is CYP2E1 (Homo sapiens (Human), UniProt P05181). Put plainly: biochemical. In kind it is in vitro ADME. How it is done:
as §1, §2

Data set [6] deals with CYP2C8 (Homo sapiens (Human), UniProt P10632). The experiment in a line: biochemical. It counts as in vitro ADME. How it is done:
as §1, §2

In data set [7] the target is CYP2B6 (Homo sapiens (Human), UniProt P20813). The experiment in a line: biochemical. In kind it is in vitro ADME. How it is done:
as §1, §2

Data set [8] deals with CYP2D6 (Homo sapiens (Human), UniProt P10635). Put plainly: biochemical. In kind it is in vitro ADME. How it is done: as §1, §2
CYP2D6, sequence (P10635 whole entry): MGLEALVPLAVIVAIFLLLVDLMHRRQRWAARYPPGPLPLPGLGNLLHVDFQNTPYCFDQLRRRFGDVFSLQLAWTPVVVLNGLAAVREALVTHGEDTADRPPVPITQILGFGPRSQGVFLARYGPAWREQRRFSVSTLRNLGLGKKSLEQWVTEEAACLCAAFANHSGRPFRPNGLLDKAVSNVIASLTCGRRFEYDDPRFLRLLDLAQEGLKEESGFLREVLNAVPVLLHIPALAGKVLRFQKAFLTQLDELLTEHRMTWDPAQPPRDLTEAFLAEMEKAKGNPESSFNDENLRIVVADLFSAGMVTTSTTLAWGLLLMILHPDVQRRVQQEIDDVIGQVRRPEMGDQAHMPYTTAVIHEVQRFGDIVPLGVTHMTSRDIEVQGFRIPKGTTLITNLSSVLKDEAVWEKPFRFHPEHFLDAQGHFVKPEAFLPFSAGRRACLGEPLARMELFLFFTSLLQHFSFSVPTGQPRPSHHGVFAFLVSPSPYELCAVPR
The nature of data set [9]: in vitro.
Data set [10] deals with CYP1A2 (Homo sapiens (Human), UniProt P05177). The experiment in a line: CYP inhibition in pooled human liver microsomes. It counts as in vitro ADME. As for the experimental part: as §1
CYP1A2, sequence (P05177 whole entry): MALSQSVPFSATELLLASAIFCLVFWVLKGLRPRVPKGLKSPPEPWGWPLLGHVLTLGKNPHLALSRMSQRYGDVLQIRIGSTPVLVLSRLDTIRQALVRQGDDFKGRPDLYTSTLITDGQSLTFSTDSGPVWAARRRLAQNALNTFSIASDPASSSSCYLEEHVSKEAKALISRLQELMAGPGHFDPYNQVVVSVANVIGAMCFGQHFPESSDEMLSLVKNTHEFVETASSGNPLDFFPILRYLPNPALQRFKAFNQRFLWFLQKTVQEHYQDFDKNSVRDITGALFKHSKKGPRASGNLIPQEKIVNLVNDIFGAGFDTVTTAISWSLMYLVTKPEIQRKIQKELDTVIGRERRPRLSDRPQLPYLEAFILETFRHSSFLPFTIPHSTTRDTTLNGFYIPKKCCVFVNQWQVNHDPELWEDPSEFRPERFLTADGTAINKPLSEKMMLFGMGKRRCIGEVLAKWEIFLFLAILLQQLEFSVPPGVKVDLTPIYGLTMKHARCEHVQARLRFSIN
The incubation plate was placed into a water bath and pre-warmed at 37° C. for 5 minutes before the reactions were started by the addition of 20 μL of 10 mM NADPH solution and incubated at 37° C. for the time listed above. […]

Data set [11] in a line: in vitro. The source holds these as a separate data set.

CYP3A4, sequence (P08684 whole entry): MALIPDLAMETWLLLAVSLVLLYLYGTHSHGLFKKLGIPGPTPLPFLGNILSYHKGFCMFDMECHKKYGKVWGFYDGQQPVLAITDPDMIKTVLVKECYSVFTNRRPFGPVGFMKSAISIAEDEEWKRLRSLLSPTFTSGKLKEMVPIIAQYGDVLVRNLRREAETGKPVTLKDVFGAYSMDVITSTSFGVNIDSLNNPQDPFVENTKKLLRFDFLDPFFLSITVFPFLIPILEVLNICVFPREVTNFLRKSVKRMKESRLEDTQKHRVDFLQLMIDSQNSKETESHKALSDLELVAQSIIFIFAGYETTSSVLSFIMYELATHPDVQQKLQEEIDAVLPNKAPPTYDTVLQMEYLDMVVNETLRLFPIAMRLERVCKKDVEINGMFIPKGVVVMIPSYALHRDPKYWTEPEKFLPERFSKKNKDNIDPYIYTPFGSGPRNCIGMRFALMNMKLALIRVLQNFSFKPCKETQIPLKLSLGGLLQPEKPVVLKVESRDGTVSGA
CYP2C9, sequence (P11712 whole entry): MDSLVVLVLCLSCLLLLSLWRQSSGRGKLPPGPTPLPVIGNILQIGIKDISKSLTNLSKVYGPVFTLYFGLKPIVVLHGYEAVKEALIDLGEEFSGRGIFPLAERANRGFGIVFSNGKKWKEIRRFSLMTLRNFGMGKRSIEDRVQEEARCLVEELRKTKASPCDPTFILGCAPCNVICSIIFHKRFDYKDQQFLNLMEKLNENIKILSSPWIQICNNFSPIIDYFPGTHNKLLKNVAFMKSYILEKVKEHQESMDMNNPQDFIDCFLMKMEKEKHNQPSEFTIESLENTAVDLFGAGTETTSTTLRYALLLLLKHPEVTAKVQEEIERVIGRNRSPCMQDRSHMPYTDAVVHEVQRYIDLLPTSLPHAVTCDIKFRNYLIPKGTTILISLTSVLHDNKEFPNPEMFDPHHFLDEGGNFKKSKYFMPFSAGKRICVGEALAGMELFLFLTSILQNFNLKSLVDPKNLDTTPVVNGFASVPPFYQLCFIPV
CYP2C8, sequence (P10632 whole entry): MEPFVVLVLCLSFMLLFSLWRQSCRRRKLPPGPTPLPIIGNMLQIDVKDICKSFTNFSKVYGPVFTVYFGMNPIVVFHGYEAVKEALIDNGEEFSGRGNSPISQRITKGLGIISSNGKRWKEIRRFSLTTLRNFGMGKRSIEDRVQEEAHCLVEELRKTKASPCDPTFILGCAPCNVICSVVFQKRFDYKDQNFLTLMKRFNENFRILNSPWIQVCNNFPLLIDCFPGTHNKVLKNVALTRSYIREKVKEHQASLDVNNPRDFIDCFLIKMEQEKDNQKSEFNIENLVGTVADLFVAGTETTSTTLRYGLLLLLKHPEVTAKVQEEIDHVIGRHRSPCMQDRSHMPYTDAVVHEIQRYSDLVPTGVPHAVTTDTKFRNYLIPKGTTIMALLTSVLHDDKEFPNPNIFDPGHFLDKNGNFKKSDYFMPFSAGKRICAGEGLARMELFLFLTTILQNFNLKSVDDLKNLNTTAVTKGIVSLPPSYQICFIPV
CYP2A6, sequence (P11509 whole entry): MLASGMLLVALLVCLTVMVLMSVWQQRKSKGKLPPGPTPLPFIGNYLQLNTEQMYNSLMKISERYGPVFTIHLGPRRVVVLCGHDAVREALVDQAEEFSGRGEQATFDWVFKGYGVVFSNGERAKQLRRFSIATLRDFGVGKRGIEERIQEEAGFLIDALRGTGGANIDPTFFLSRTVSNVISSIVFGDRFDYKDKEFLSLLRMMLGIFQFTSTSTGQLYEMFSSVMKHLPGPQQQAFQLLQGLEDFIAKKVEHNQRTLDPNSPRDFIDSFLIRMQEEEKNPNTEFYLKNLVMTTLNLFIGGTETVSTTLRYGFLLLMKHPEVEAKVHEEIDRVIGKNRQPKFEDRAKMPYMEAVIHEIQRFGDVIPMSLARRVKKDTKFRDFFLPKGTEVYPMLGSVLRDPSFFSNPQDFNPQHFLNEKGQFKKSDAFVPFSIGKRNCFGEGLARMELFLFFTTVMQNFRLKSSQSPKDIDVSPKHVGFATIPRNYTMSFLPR
CYP2C19, sequence (P33261 whole entry): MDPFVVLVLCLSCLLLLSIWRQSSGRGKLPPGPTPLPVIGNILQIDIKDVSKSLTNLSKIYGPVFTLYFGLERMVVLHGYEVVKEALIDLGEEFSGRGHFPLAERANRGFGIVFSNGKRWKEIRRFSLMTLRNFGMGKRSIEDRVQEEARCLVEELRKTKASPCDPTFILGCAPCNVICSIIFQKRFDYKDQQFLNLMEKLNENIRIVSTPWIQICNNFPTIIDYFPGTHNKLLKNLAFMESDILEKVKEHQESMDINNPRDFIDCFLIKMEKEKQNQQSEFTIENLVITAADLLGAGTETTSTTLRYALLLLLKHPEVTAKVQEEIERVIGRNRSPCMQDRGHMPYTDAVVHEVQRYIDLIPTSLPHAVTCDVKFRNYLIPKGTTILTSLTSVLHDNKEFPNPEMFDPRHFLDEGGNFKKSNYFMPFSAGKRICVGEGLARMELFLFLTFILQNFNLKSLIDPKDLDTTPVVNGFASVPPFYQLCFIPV
CYP2E1, sequence (P05181 whole entry): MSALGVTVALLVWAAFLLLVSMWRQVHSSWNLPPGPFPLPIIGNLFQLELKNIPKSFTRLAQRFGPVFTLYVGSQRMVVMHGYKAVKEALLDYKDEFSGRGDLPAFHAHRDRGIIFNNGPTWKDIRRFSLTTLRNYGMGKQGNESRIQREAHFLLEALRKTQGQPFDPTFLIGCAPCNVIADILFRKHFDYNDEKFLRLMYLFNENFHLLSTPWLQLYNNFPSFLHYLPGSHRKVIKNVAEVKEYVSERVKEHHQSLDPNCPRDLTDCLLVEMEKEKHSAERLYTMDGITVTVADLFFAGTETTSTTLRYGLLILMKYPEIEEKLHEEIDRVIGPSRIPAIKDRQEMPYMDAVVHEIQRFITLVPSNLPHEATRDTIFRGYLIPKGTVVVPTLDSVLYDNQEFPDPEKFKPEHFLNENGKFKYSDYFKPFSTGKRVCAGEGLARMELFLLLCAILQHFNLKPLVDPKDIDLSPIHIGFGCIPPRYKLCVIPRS
CYP2B6, sequence (P20813 whole entry): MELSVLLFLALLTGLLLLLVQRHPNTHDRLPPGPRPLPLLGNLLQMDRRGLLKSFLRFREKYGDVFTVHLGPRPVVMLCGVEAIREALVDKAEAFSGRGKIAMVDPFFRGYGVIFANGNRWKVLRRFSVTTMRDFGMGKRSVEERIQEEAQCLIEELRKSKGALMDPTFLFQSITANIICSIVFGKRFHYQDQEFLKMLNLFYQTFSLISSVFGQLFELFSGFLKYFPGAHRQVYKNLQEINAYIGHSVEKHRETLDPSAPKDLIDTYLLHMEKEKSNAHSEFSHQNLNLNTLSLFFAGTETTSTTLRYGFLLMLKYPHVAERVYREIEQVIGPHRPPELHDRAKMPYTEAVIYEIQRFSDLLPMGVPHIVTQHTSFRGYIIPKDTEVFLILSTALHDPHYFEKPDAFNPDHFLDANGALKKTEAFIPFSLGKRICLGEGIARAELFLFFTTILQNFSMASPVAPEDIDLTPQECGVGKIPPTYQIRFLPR

Take `COc1ccc(F)c(-n2ncc3c2CCC[C@H]3NC(=O)c2ncn3c2CCCC3)c1Cl` [Compound C, reference compound]: the IC50 (usually the point on the concentration scale where inhibition reaches its midpoint) in [1] is 9.2 µM; in data set [2], > 30 µM; in data set [3], 18 µM; in data set [4] (IC50 CYP3A4-M, substrate Midozolam) it was 16 µM; in [4] (IC50 CYP3A4-T, substrate Testosterone), > 30 µM; in [5], > 30 µM. The IC50 in [6], in data set [7], in [8] and in data set [10] was > 30 µM in each case. The HLM % remaining in [9] (% remaining at 60 min, 1 μM) is given as 69%. Further, the half-life – broadly, the time needed for the level to fall by half in the phase considered – at 1 μM in data set [9] (both, human, pooled liver microsomes) is 1.7 h; in data set [11] (human, hepatocytes), > 10 h. In addition, the hHEPs % remaining in data set [11] (% remaining at 120 min, 1 μM) amounted to 100%.
